{"source": "patent US10106627B2", "about": "“Process for the preparation of polymeric biosurfactants” (priority 2014, dated 2018)", "key": {"[1]": {"assay": "Superoxide anion scavenging (PMS/NADH method)", "format": "biochemical", "conditions": "cell free", "experimental": "(§1) The antioxidant activity of Microsan from Microbacterium sp. strain BS-2 and Brevisan from Brevibacillus sp. strain BS-207 in cell free system was measured by its inhibitory activity on the generation of DPPH free radicals, superoxide anions (O^2−), lipid peroxidation and erythrocyte hemolysis. The DPPH free radical scavenging assay was performed using 2,2-diphenyl-1-picrylhydrazyl (DPPH) free radical scavenging method [Ara. N. and Hasan, N. (2009) Res. J. Med. Medical Sci. 4, 107-110]. Different concentrations of Microsan and Brevisan were mixed individually with 150 μl of 160 μM methanolic solution of DPPH and incubated at 35° C. for 30 min in dark. The effective concentration (EC50) was calculated by measuring the absorbance of the samples at 517 nm. The superoxide anion scavenging was measured using phenazine methosulfate-nicotinamide adenine dinucleotide (PMS/NADH) method as previously described [Liu, F., Ooi, V. E. and Chang, S. T. (1997) Life Sci. 60, 763-771]. The lipid peroxidation assay was performed using the previously described method [Zhang, Q., Yu, P., Li, Z., Zhang, H., Xu, Z. and Li, P. (2003) J. Appl. Phycol. 15, 305-310] which is based on measuring the lipid peroxide decomposed product malondialdehyde (MDA). […] Samples were incubated at 37° C. for 30 min and the absorbance was measured at 540 nm. […]"}, "[2]": {"assay": "Emulsification index (EI24)", "format": "physicochemical", "conditions": "24 h", "experimental": "The surface tension of the purified Microsan from Microbacterium sp. strain BS-2 and Brevisan from Brevibacillus sp. strain BS-207 was measured by Wilhelmy plate method using a Du-Nouy K100MK2 Processor Tensiometer (Krüss, Hamburg, Germany) which reduced the surface tension of water from 72 to 31.2 mN m^−1. The interfacial tension value was measured by Du-Nouy ring method and it was determined as 25.7 mN m. The critical micelle concentration (CMC) was measured by plotting the concentration of EPS as a function of surface tension. The CMC is the point where the slope of the curve abruptly changed was determined as 75 mg l^−1. The emulsification index (EI24) was determined by the addition of 4 ml of culture supernatant to 6 ml of various hydrocarbons (N-Hexadecane, tridecane, hexane, toluene and xylene) and oils (mineral oil and soybean oil) and the mixtures were vortexed for 2 min and allowed to stand for 24 h. The emulsification index (EI24) values expressed as the percentage of height of emulsified layer to the height of total liquid column."}, "[3]": {"tested_on": "Escherichia coli MTCC 739", "assay": "Microtiter broth dilution MIC", "format": "cell-based", "conditions": "Escherichia coli MTCC 739, 24 h, 35° C.", "experimental": "(§2) The antimicrobial activity of Microsan and M-EPS-Au-NP was determined using the microtiter broth dilution method [Kumar, C. G. and Mamidyala, S. K. (2011) Coll. Surf B: Biointerf. 84, 462-466]. Different bacterial pathogens (10^7 cfu ml^−1 cells) were inoculated in 100 μl of Muller-Hinton broth. Different concentrations of Microsan, M-EPS-Au-NP and Brevisan were added to each strain and incubated for 24 h at 35° C. After incubation, 40 μl of p-iodonitrotetrazolium (INT, Sigma) dye (0.02%, 20 mg INT dissolved in 100 ml of 40% dimethyl formamide was added to each well and incubated for 2 h. The reduction of p-iodonitrotetrazolium was spectroscopically measured at 450 nm using TRIAD multimode reader (Dynex Technologies, Inc., Chantilly, Va.) to determine the minimum inhibitory concentration (MIC) values. Commercially available surfactin (CAS 24730-31-2; Sigma-Aldrich) and laminarin (CAS No 9008-22-4; Sigma-Aldrich) used as positive controls were run in parallel for comparison. The MIC values of Microsan and M-EPS-Au-NP observed against the tested bacterial strains are shown in Table 3."}, "[4]": {"tested_on": "Pseudomonas aeruginosa MTCC 2453", "assay": "Microtiter broth dilution MIC", "format": "cell-based", "conditions": "Pseudomonas aeruginosa MTCC 2453, 24 h, 35° C.", "experimental": "as §2"}, "[5]": {"tested_on": "Bacillus subtilis MTCC 121", "assay": "Microtiter broth dilution MIC", "format": "cell-based", "conditions": "Bacillus subtilis MTCC 121, 24 h, 35° C.", "experimental": "as §2"}, "[6]": {"tested_on": "Micrococcus luteus MTCC 2470", "assay": "Microtiter broth dilution MIC", "format": "cell-based", "conditions": "Micrococcus luteus MTCC 2470, 24 h, 35° C.", "experimental": "as §2"}, "[7]": {"tested_on": "Staphylococcus aureus MTCC 96", "assay": "Microtiter broth dilution MIC", "format": "cell-based", "conditions": "Staphylococcus aureus MTCC 96, 24 h, 35° C.", "experimental": "as §2"}, "[8]": {"tested_on": "Klebsiella planticola MTCC 530", "assay": "Microtiter broth dilution MIC", "format": "cell-based", "conditions": "Klebsiella planticola MTCC 530, 24 h, 35° C.", "experimental": "as §2"}, "[9]": {"tested_on": "Staphylococcus aureus MLS16 MTCC 2940", "assay": "Microtiter broth dilution MIC", "format": "cell-based", "conditions": "Staphylococcus aureus MLS16 MTCC 2940, 24 h, 35° C.", "experimental": "as §2"}, "[10]": {"tested_on": "cyclooxygenase-2 (COX-2) in RAW 264.7 cells", "assay": "LPS-induced COX-2 immunoblot in RAW 264.7 cells", "format": "cell-based, mouse", "conditions": "10 and 50 μg ml^−1, 24 h, LPS 100 ng ml^−1", "description": "In independent experiments, RAW-264.7 cells were treated with Brevisan, Microsan and M-EPS-Au-NP (10 and 50 μg ml^−1 each) and then stimulated with 100 ng ml^−1 of LPS. After 24 h, the cells were washed with PBS and suspended in a lysis buffer containing 20 mM Tris, I mM EDTA, 150 mM NaCl, 1% NP-40, 0.5% sodium deoxycholate, 1 mM β-glycerophosphate, 1 mM sodium orthovanadate, 1 mM PMSF, 10 mg ml^−1 leupeptin, 20 mg ml^−1 aprotinin. The mixture was centrifuged at 10,000 rpm at 4° C. for 10 min to obtain the cell lysate. The protein content was determined by Bradford method [Bradford, M. M. (1976) Anal. Biochem. 72, 248-258]. An equal amount of total cell lysate was resolved on 12% SDS-PAGE gels and then transferred onto nitrocellulose membranes. Membranes were blocked with 5% w/v non-fat dry milk and then incubated with the primary antibodies for mouse COX-2 and β-actin with gentle shaking at 4° C. for 12 h and then incubated with peroxidase-conjugated secondary antibodies. The blots were developed using peroxidase substrates, TMB (3,3,5,5-tetramethylbenzidine)/H2O2."}, "[11]": {"tested_on": "erythrocytes", "assay": "Erythrocyte hemolysis assay (H2O2)", "format": "cell-based", "conditions": "human erythrocytes, H2O2, 37° C., 30 min", "experimental": "as §1"}, "[12]": {"tested_on": "IL-6 in RAW 264.7 cells", "assay": "LPS-induced IL-6 ELISA in RAW 264.7 cells", "format": "cell-based, mouse", "conditions": "50 μg ml^−1; LPS 100 ng ml^−1 24 h; LPS alone 190.9", "experimental": "The effect of Brevisan, Microsan and M-EPS-Au-NP on the release of proinflammatory cytokines, TNF-α and IL-6, was measured using ELISA kits (Biosource International, Camarillo, Calif., USA). In independent experiments, the RAW-264.7 cells were treated with different concentrations (1, 10, 50 and 100 μg ml^−1) of Brevisan, Microsan and M-EPS-Au-NP and then stimulated with 100 ng ml^−1 of LPS. The supernatants were harvested after 24 h and the concentrations of TNF-α and IL-6 was measured using an ELISA kit according to the manufacturer's instructions."}}, "data": [{"substance": "β-D-glucuronyl-(1-2)-D-mannosyl-(1-4)-D-glucose [Microsan]", "values": [{"measurement": "EC50 superoxide anions (O^2−) scavenging", "setting": "[1]", "value": 24.48, "unit": "µg/mL"}, {"measurement": "emulsification index (EI24)", "setting": "[2]; N-hexadecane", "value": 67, "unit": "%"}, {"measurement": "emulsification index (EI24)", "setting": "[2]; hexane", "value": 83.7, "unit": "%"}, {"measurement": "emulsification index (EI24)", "setting": "[2]; mineral oil", "value": 71.9, "unit": "%"}, {"measurement": "emulsification index (EI24)", "setting": "[2]; soybean oil", "value": 63, "unit": "%"}, {"measurement": "emulsification index (EI24)", "setting": "[2]; toluene", "value": 74.9, "unit": "%"}, {"measurement": "emulsification index (EI24)", "setting": "[2]; tridecane", "value": 77, "unit": "%"}, {"measurement": "emulsification index (EI24)", "setting": "[2]; xylene", "value": 66.89, "unit": "%"}, {"measurement": "Minimum inhibitory concentration (MIC)", "setting": "[3]", "value": ">300", "unit": "µg/mL"}, {"measurement": "Minimum inhibitory concentration (MIC)", "setting": "[4]", "value": ">300", "unit": "µg/mL"}, {"measurement": "Minimum inhibitory concentration (MIC)", "setting": "[5]", "value": 4.68, "unit": "µg/mL"}, {"measurement": "Minimum inhibitory concentration (MIC)", "setting": "[6]", "value": ">300", "unit": "µg/mL"}, {"measurement": "Minimum inhibitory concentration (MIC)", "setting": "[7]", "value": 18.75, "unit": "µg/mL"}, {"measurement": "Minimum inhibitory concentration (MIC)", "setting": "[8]", "value": 9.37, "unit": "µg/mL"}, {"measurement": "Minimum inhibitory concentration (MIC)", "setting": "[9]", "value": 4.68, "unit": "µg/mL"}, {"measurement": "induction of COX-2 (Western blot)", "setting": "[10]", "value": "significantly inhibited"}, {"measurement": "EC50 erythrocyte hemolysis inhibition", "setting": "[11]", "value": 139.28, "unit": "µg/mL"}, {"measurement": "IL-6 production after treatment", "setting": "[12]", "value": 90.01, "unit": "µg/mL"}]}]}
